Results published in ChEMBL document CHEMBL1153082, “Design and synthesis of N(6)-substituted-4'-thioadenosine-5'-uronamides as potent and selective human A(3) adenosine receptor agonists” (Bioorg Med Chem, 2009).

What was measured:
[1] = target: T1, Adenosine receptor A1 (Homo sapiens) (UniProt P30542); test: Displacement of [3H]R-PIA from human adenosine A1 receptor expressed in CHO cells at 1 uM; type: cell-based
T1 sequence (whole entry): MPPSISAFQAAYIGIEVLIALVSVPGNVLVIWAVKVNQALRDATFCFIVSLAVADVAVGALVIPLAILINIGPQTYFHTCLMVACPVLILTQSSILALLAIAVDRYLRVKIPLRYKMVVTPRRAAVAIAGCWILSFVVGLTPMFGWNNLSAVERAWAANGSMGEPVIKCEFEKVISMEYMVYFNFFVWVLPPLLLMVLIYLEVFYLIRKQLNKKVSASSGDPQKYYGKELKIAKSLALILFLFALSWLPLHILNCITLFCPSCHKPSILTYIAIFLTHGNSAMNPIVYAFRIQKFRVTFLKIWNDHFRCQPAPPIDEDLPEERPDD

Adenosine receptor A2a [2] = target: T2, Adenosine receptor A2a (Homo sapiens, UniProt P29274); test: Displacement of [3H]CGS21680 from human adenosine A2A receptor expressed in CHO cells at 1 uM; type: cell-based
T2 sequence (P29274 whole entry): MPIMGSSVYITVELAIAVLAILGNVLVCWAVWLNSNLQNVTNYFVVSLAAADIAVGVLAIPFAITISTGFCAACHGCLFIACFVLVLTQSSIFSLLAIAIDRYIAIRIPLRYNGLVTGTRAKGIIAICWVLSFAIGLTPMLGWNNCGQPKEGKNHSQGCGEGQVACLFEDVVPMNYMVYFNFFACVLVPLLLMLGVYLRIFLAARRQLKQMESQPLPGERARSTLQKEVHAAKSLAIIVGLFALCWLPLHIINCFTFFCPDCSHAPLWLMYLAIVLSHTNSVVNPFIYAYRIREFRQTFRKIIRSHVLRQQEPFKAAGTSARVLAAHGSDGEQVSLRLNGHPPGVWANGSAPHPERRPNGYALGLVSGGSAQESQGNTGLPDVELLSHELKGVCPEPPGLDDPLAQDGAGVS

Adenosine receptor A3 = target: T3, Adenosine receptor A3 (Homo sapiens, UniProt P0DMS8); test: biochemical
T3 sequence (P0DMS8 whole entry): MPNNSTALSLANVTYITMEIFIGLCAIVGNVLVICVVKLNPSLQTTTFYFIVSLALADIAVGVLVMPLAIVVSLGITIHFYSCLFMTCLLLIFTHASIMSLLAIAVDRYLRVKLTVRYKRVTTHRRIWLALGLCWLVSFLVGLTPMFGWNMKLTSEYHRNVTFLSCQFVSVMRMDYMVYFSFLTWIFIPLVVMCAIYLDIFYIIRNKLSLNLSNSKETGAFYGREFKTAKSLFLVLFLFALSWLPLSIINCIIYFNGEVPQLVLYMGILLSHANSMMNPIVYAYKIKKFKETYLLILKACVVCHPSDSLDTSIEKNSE

Adenosine receptor A1 [3] = target: T4, Adenosine receptor A1 (Homo sapiens, UniProt P30542)
T4 sequence (P30542 whole entry): T1 sequence (whole entry)

Adenosine receptor A2a [4] = target: T2, Adenosine receptor A2a
Adenosine receptor A1 [5] = target: T4, Adenosine receptor A1; test: biochemical
Adenosine receptor A2a [6] = target: T2, Adenosine receptor A2a; test: biochemical

SMILES | inhibition [1] | inhibition (Adenosine receptor A2a [2]) | Ki (Adenosine receptor A3) | Ki (Adenosine receptor A1 [3]) | Ki (Adenosine receptor A2a [4]) | Ki (Adenosine receptor A1 [5]) | Ki (Adenosine receptor A2a [6])
O=C(NCCc1ccccc1)[C@H]1S[C@@H](n2cnc3c(NCc4cccc(I)c4)ncnc32)[C@H](O)[C@@H]1O | 20% | 38% | 433 nM | – | – | – | –
CNC(=O)[C@H]1S[C@@H](n2cnc3c(NCc4cccc(I)c4)ncnc32)[C@H](O)[C@@H]1O | – | – | – | 20.2 nM | 475 nM | – | –
O=C(NCc1cccc(Cl)c1)[C@H]1S[C@@H](n2cnc3c(NCc4cccc(I)c4)ncnc32)[C@H](O)[C@@H]1O | 25% | 26% | 144 nM | – | – | – | –
CNc1ncnc2c1ncn2[C@@H]1S[C@H](C(=O)NCc2cccc(I)c2)[C@@H](O)[C@H]1O | 24% | 24% | 15.6 nM | – | – | – | –
O=C(NCC1CC1)[C@H]1S[C@@H](n2cnc3c(NCc4cccc(I)c4)ncnc32)[C@H](O)[C@@H]1O | – | – | 2.16 nM | – | – | 159 nM | 1600 nM
Cc1cccc(CNC(=O)[C@H]2S[C@@H](n3cnc4c(NCc5cccc(I)c5)ncnc43)[C@H](O)[C@@H]2O)c1 | – | 37% | 94.9 nM | – | – | 4070 nM | –
O=C(NCc1cccc2ccccc12)[C@H]1S[C@@H](n2cnc3c(NCc4cccc(I)c4)ncnc32)[C@H](O)[C@@H]1O | 20% | 11% | 1200 nM | – | – | – | –
O=C(NC(c1ccccc1)c1ccccc1)[C@H]1S[C@@H](n2cnc3c(NCc4cccc(I)c4)ncnc32)[C@H](O)[C@@H]1O | 17% | – | 116 nM | – | – | – | –
CNc1ncnc2c1ncn2[C@@H]1S[C@H](C(=O)NC2CC2)[C@@H](O)[C@H]1O | – | – | 2.16 nM | – | – | 6.58 nM | 161 nM
O=C(NC1CC1)[C@H]1S[C@@H](n2cnc3c(NCc4cccc(I)c4)ncnc32)[C@H](O)[C@@H]1O | – | – | 3.03 nM | – | – | – | 15.2 nM
O=C(NC1CCC1)[C@H]1S[C@@H](n2cnc3c(NCc4cccc(I)c4)ncnc32)[C@H](O)[C@@H]1O | – | – | 1.17 nM | – | – | 23.6 nM | 122 nM
CNc1ncnc2c1ncn2[C@@H]1S[C@H](C(=O)NC2CCCC2)[C@@H](O)[C@H]1O | – | 27% | 0.97 nM | – | – | 48.6 nM | –
CCNC(=O)[C@H]1S[C@@H](n2cnc3c(NC)ncnc32)[C@H](O)[C@@H]1O | – | 38% | 0.97 nM | – | – | 4.83 nM | –
CCOc1ccccc1CNC(=O)[C@H]1S[C@@H](n2cnc3c(NCc4cccc(I)c4)ncnc32)[C@H](O)[C@@H]1O | 12% | 20% | 113 nM | – | – | – | –
CNc1ncnc2c1ncn2[C@@H]1S[C@H](C(=O)NC2CCC2)[C@@H](O)[C@H]1O | – | – | 1.04 nM | – | – | 6.27 nM | 108 nM
CNC(=O)[C@H]1S[C@@H](n2cnc3c(NC)ncnc32)[C@H](O)[C@@H]1O | – | 20% | 1.19 nM | – | – | 69.5 nM | –
O=C(NC1CCCCC1)[C@H]1S[C@@H](n2cnc3c(NCc4cccc(I)c4)ncnc32)[C@H](O)[C@@H]1O | 28% | 35% | 35.4 nM | – | – | – | –
O=C(NCc1cccc(F)c1)[C@H]1S[C@@H](n2cnc3c(NCc4cccc(I)c4)ncnc32)[C@H](O)[C@@H]1O | 25% | 44% | 61.1 nM | – | – | – | –
Cc1ccccc1CNC(=O)[C@H]1S[C@@H](n2cnc3c(NCc4cccc(I)c4)ncnc32)[C@H](O)[C@@H]1O | 18% | 31% | 31 nM | – | – | – | –
COc1ccccc1CNC(=O)[C@H]1S[C@@H](n2cnc3c(NCc4cccc(I)c4)ncnc32)[C@H](O)[C@@H]1O | 34% | 23% | 97 nM | – | – | – | –
Cc1ccc(CNC(=O)[C@H]2S[C@@H](n3cnc4c(NCc5cccc(I)c5)ncnc43)[C@H](O)[C@@H]2O)cc1 | 15% | 28% | 135 nM | – | – | – | –
CNc1ncnc2c1ncn2[C@@H]1S[C@H](C(=O)NCC2CC2)[C@@H](O)[C@H]1O | – | 45% | 1.35 nM | – | – | 33.1 nM | –
CCNC(=O)[C@H]1S[C@@H](n2cnc3c(NCc4cccc(I)c4)ncnc32)[C@H](O)[C@@H]1O | – | – | 0.42 nM | – | – | 5.4 nM | 57.6 nM
